Measured values as given in patent publication US7659293B2, “α-Amino-N-hydroxy-acetamide derivatives” (Novartis AG, priority 2001, dated 2010).

Tested on: BN472 rat mammary carcinoma
Experiment: Spontaneous metastases model, BN472 rat mammary tumors transplanted orthotopically
Format: in vivo
Conditions: 4 weeks, vehicle control about 230
Method: Tumor fragments of ca. 25 mm^3 are transplanted under the mammary fat pad of female Brown-Norwegian (BN) rats. A compound of formula I is suspended in 1% carboxymethyl cellulose (CMC) in sterile water. The formulations are administered orally at doses of either 30 mg/kg once per day or 15 mg/kg twice per day. Animals in the tumor-bearing control group and the non-tumor-bearing control group (healthy rats) receive vehicle only. Treatment starts after randomization and continues for 4 weeks. Lung metastases are determined after four weeks of treatment by counting the number of lesions visible on the surface of the lungs after fixation in Bouin's fixative. In this model the compounds of formula I at a dose of either 30 mg/kg once per day or 15 mg/kg twice per day produce reductions in the incidence and/or extent of metastases in lungs and regional lymph nodes. The reduction in the median number of lung metastases or weight of regional lymph nodes is between approximately 25% and 70%. For Example, for the compound of Example 3 the median number of lung foci is about 105 for both dosages compared to a median number of about 230 lung foci in the vehicle control group. Based on the increase in body weight and general health, the compounds appear to be well tolerated. […]

With O=C(CN(Cc1ccc(-n2nccn2)cc1)S(=O)(=O)c1ccc(OCC2CC2)cc1)NO [Example 3, [(4-Cyclopropylmethoxy-benzenesulfonyl)-(4-[1,2,3]triazol-2-yl-benzyl)amino]-N-hydroxy-acetamide] the “median number of lung foci” value (15 mg/kg twice per day orally) was “about 105” and the “median number of lung foci” value (30 mg/kg once per day orally) was “about 105”.
